Columns and labels:
capsid protein of HBV = capsid protein of HBV (Hepatitis B virus genotype D subtype ayw, UniProt P03146); assay: Binding to the capsid protein of HBV (general statement)
HBV core protein (Cp) = HBV core protein (Cp) (Hepatitis B virus genotype D subtype ayw, UniProt P03146); assay: HBV core protein (Cp) assembly rate, assembly induced by NaCl (FIG. 1); format: biochemical; settings: 5 μM Cp, assembly induced with 150 mM NaCl, increasing concentration of stain
Procedure: In this experiment, 5 μM Cp was incubated with or without FL-HAPAlexaFluor® 488 (Compound 5) prior to inducing assembly by addition of 150 mM NaCl.
(§1) FL-HAPAlexaFluor® 488 (Compound 5) retains several critical properties of HAP molecules. […] Most importantly, FL-HAPAlexaFluor® 488 (Compound 5) binds pre-assembled cores with high affinity.

HBV capsid / Cp dimer = HBV capsid / Cp dimer (Hepatitis B virus genotype D subtype ayw, UniProt P03146); assay: Size exclusion chromatography (Superose 6) of Cp assembly reactions (FIG. 2); format: binding
Sequence of HBV capsid / Cp dimer (P03146 whole entry): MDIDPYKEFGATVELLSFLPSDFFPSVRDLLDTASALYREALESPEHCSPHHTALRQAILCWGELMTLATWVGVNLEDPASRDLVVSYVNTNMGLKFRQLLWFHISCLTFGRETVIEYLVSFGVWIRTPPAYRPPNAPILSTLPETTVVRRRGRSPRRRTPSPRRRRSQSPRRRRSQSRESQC
Procedure: In this experiment, 5 μM Cp was mixed with FL-HAPAlexaFluor® 488 (Compound 5) and then induced to assemble with 150 mM NaCl. Reactions were resolved on a Superose 6 column after 24 hours. Capsid elutes at 9.5 ml, aggregates at 8 ml, and Cp dimer at 18 ml.
as §1

HBV capsids = HBV capsids (Hepatitis B virus genotype D subtype ayw, UniProt P03146); assay: Staining of pre-assembled HBV capsids, sucrose gradient and agarose gel electrophoresis (FIG. 3); format: binding
Sequence of HBV capsids (P03146 whole entry): as above
Procedure: Shown at left: Capsids stained with FL-HAPAlexaFluor® 488 (Compound 5) were separated on a sucrose gradient. […] Shown at right: Capsids, at the listed concentration, were stained with 25 nM FL-HAPAlexaFluor® 488 (Compound 5) prior to electrophoresis.
as §1

[1] = system: HepG2 cells expressing RNA-filled HBV cores; assay: Fluorescence microscopy of stained HBV-producing cells (FIG. 4); format: cell-based
Description: (§2) Various forms of FL-HAP may be synthesized thereby varying the resulting solubility properties of the fluorescent stain. The more soluble forms are particularly useful for observing HBV cores in solution or serum; they may also be useful for lightly staining intracellular HBV cores. The ability of the illustrative FL-HAP compound, FL-HAPAlexaFluor® 488 (Compound 5), to cross cell membranes and label HBV-expressing cells and, specifically, to label concentrations of HBV cores in those cells, is shown in FIG. 4. […] The more hydrophobic forms of FL-HAP (e.g., Compound 6 and Compound 7) are particularly useful for rapid staining of tissue samples.

control HepG2 cells = assay: Fluorescence microscopy of stained control cells (FIG. 4); format: cell-based; settings: camera on high gain
Description: as §2

Sequence of capsid protein of HBV (P03146 whole entry): as above
Sequence of HBV core protein (Cp) (P03146 whole entry): as above

| Structure (SMILES) | binding to the capsid protein of HBV (capsid protein of HBV) | effect on core protein assembly rate (HBV core protein (Cp)) | extent of assembly and size of complexes (HBV capsid / Cp dimer; 5 μM Cp, 150 mM NaCl, Superose 6 column after 24 hours, increasing stain) | free HBV dimer remaining (HBV capsid / Cp dimer; SEC, as stain is added) | formation of aberrant particles (HBV capsid / Cp dimer; light scattering in excess of free capsid, products run faster on SEC than capsid) | copies bound per HBV capsid (HBV capsid / Cp dimer; ratio of protein to fluorophore absorbance across SEC peaks) | species bound by the stain (capsid vs dimer) (HBV capsid / Cp dimer; visualized at 495 nm) | dissociation from HBV capsids (HBV capsids) | affinity for pre-assembled HBV cores (HBV capsids; SEC, sucrose gradient, agarose gel) | binding to capsids on electrophoresis (HBV capsids; capsids stained with 25 nM stain prior to electrophoresis, non-equilibrium conditions) | fluorescent labeling of cells ([1]; HepG2 cells expressing RNA-filled HBV cores) | co-localization of fluorescence with Cp-specific antibodies ([1]; data not shown) | fluorescent labeling of cells (control HepG2 cells) |
| --- | --- | --- | --- | --- | --- | --- | --- | --- | --- | --- | --- | --- | --- |
| COC(=O)C1=C(CN2CCN(C(=O)CCCNC(=S)Nc3ccc(-c4c5ccc(=O)cc-5oc5cc(O)ccc45)c(C(=O)O)c3)CC2)NC(c2ccccn2)=NC1c1ccc(F)cc1Cl (stereo not drawn) [Compound 6] | specific binding |  |  |  |  |  |  |  |  |  |  |  |  |
| COC(=O)C1=C(CN2CCN(C(=O)CCCNC(=O)CCC3=[N+]4C(=Cc5c(C)cc(C)n5[B-]4(F)F)C=C3)CC2)NC(c2ccccn2)=NC1c1ccc(F)cc1Cl (stereo not drawn) [Compound 7] | specific binding |  |  |  |  |  |  |  |  |  |  |  |  |
| COC(=O)C1=C(CN2CCN(C(=O)CCCNC(=O)c3ccc(-c4c5ccc(=N)c(S(=O)(=O)O)c-5oc5c(S(=O)(=O)O)c(N)ccc45)c(C(=O)O)c3)CC2)NC(c2ccccn2)=NC1c1ccc(F)cc1Cl (stereo not drawn) [Compound 5] | specific binding | accelerates core protein assembly | more assembly of progressively larger complexes | progressively less free HBV dimer | leads to formation of aberrant particles | approximately 120 copies | only assembled Cp (i.e., capsid) is bound | dissociates slowly | high affinity | binding was evident at nM concentrations | numerous puncta and aggregates of puncta are seen | co-localize with Cp-specific antibodies | no green puncta are seen |

From patent publication US10006913B2, “Fluorescent-HAP: a diagnostic stain for HBV cores in cells” (INDIANA UNIVERSITY RESEARCH AND TECHNOLOGY CORPORATION, priority 2013, dated 2018)
